Values quoted from earlier work, collected in patent publication US10695287B2, “AMPK agonist topical medication for the treatment of certain specific medical conditions, methods of use thereof and wound dressing employing the same” (CERSCI THERAPEUTICS, INC., priority 2015, dated 2020).

Tested on: AMPK
Settings: topical administration; animal model (rodents); literature (Price et al. 2013; Tillu et al. 2012)

Oc1ccc(C=Cc2cc(O)cc(O)c2)cc1 [resveratrol]
mitigation of pain: has shown efficacy in mitigation of pain
